From patent US20150141248A1, “ANTIFUNGAL COMPOSITIONS” (DSM IP ASSETS B.V., priority 2011, published 2015)

What was measured:
Fusarium proliferatum [1] = experiment: In vitro antifungal activity, 96-well microtiter plates; format: cell-based; conditions: in vitro 25° C.; 10 days; natamycin 2.5 ppm, prothioconazole 0.5 ppm or both
Protocol: Subsequently, 100 μl of a Botrytis cinerea suspension prepared in PCB medium was used to inoculated each well with 2.5×10^3 spores/ml.
, the in vitro antifungal activity (%) of the individual active ingredients was assessed by calculating the reduction in mould growth observed in the presence of the active ingredient in comparison to the mould growth observed in the absence of the active ingredient. The expected antifungal activity (E in %) of the active ingredient combination was calculated according to the Colby equation (Colby, 1967): […]
The experiment was conducted as described in Example 13, except for the fact that the following compositions were tested:
Furthermore, Fusarium proliferatum was used for inoculation. The antifungal activity (in %) of the individual and combined active ingredients was determined according to the method described in Example 13.

Botrytis cinerea [2] = experiment: Treatment of wounded strawberries inoculated with Botrytis cinerea (mould growth); format: in vivo; conditions: 250 ppm natamycin; for Number of moulded wounds/total number of 12 wounds (title: Number of moulded strawberries): strawberries 20° C.; for Observed antifungal activity O: strawberries
Protocol: Twelve fresh, organic strawberries were used per treatment. Each strawberry was wounded with a 0.5 mm long cut and each wound was inoculated with 10 μl of a Botrytis cinerea suspension containing 1×10^5 of spores/ml. […] The antifungal compositions also comprised 1.00% (w/w) methylhydroxyethylcellulose (MHEC), 0.40% (w/w) xanthan gum, 0.20% (w/w) anti-foaming agent, 0.30% (w/w) citric acid, 0.39% (w/w) lactic acid and 0.11% (w/w) potassium sorbate. The pH of the composition was 4.0. A composition without natamycin or prothioconazole was used as control. The treated strawberries were incubated in a closed box in the dark at 20° C. for 3 days.
After 2 and 3 days of incubation, the mould growth on the strawberries was assessed in a twofold manner: (i) the number of moulded strawberries per total of 12 strawberries was counted; and (ii) the antifungal activity (in %) of the individual and combined active ingredients was determined by calculating the reduction in mould growth observed on the strawberries treated with the antifungal composition in comparison to the mould growth on the strawberries treated with the control composition according to the Colby method described in Example 4 (Colby, 1967).

Penicillium italicum = experiment: Treatment of wounded mandarins inoculated with Penicillium italicum (mould growth); format: in vivo
Protocol: Ten fresh, organic mandarins were used per treatment. The peel of each mandarin was wounded once using a cork borer according to the method described by de Lapeyre de Bellaire and Dubois (1987). Subsequently, each wound was inoculated with 10 μl of a Penicillium italicum suspension containing 1×10^4 of spores/ml. […] The pH of the composition was 4.0. […]

Fusarium proliferatum [3] = experiment: Treatment of wounded bananas inoculated with Fusarium proliferatum (mould growth); format: in vivo; conditions: bananas 20° C.
Protocol: Four organic, unripe (green) bananas were used per treatment. The peel of each banana was wounded thrice using a cork borer according to the method described by de Lapeyre de Bellaire and Dubois (1987). Subsequently, each wound was inoculated with 15 μl of a Fusarium proliferatum suspension containing 1×10^5 of spores/ml. […] In addition, the antifungal compositions comprised 1.00% (w/w) methylhydroxyethylcellulose (MHEC), 0.40% (w/w) xanthan gum, 0.20% (w/w) anti-foaming agent, 0.30% (w/w) citric acid, 0.39% (w/w) lactic acid and 0.11% (w/w) potassium sorbate. The pH of the composition was 4.0. […] The treated, unripe bananas were incubated in a closed box in the dark at 20° C. and a relative air humidity of 95%, which was obtained in the presence of a saturated Na2HPO4 aqueous solution. During the first 20 days of incubation, a ripe (yellow) banana was included in the closed box to elevate the ethylene gas level and thus induce ripening of the treated, unripe bananas. […]
The expected antifungal activity (E in %) of the combined antifungal composition comprising both active ingredients was calculated according to the Colby equation (Colby, 1967): […]
wherein X and Y are the observed antifungal activities (in %) of the individual active ingredients X and Y, respectively. If the observed antifungal activity (O in %) of the combination exceeds the expected antifungal activity (E in %) of the combination and the synergy factor O/E is thus >1.0, the combined application of the active ingredients leads to a synergistic antifungal effect.

Botrytis cinerea [4] = experiment: In vitro antifungal activity, 96-well microtiter plates; format: cell-based; conditions: in vitro 25° C., natamycin 1.25 ppm
Protocol: The following compositions were tested: […] Subsequently, 100 μl of a Botrytis cinerea suspension prepared in PCB medium was used to inoculated each well with 2.5×10^3 spores/ml. […] The expected antifungal activity (E in %) of the active ingredient combination was calculated according to the Colby equation (Colby, 1967): […] wherein X and Y are the observed antifungal activities (in %) of the individual active ingredients X and Y, respectively.

For `OC(Cc1ccccc1Cl)(Cn1nc[nH]c1=S)C1(Cl)CC1` (stereo not shown) [Prothioconazole, prothioconazole], the “Observed antifungal activity O” value (Fusarium proliferatum [1]) was 50%, the “Number of moulded wounds/total number of 12 wounds (title: Number of moulded strawberries)” value (Botrytis cinerea [2]; 500 ppm prothioconazole or both, Day 2) was 12/12 and the “Number of moulded wounds/total number of 12 wounds (title: Number of moulded strawberries)” value (Botrytis cinerea [2]; 500 ppm prothioconazole or both, Day 2, listed as prothioconazole) was 12. For the same compound, the “Number of moulded wounds/total number of 12 wounds (title: Number of moulded strawberries)” value (Botrytis cinerea [2]; 500 ppm prothioconazole or both, Day 3) was 12/12, the “Number of moulded wounds/total number of 12 wounds (title: Number of moulded strawberries)” value (Botrytis cinerea [2]; 500 ppm prothioconazole or both, Day 3, listed as prothioconazole) was 12 and the “Observed antifungal activity O” value (Botrytis cinerea [2]; 500 ppm prothioconazole (row prints 50 ppm) or both, 3 days) was 21%. The “Observed antifungal activity O” value (Botrytis cinerea [2]; 500 ppm prothioconazole or both, 2 days) was 14%, the “Observed antifungal activity O” value (Penicillium italicum; 250 ppm natamycin, 150 ppm prothioconazole or both, 13 days) was 86% and the “Observed antifungal activity O” value (Penicillium italicum; 250 ppm natamycin, 150 ppm prothioconazole or both, 16 days) was 82%. The “Observed antifungal activity O” value (Penicillium italicum; 250 ppm natamycin, 150 ppm prothioconazole or both, 21 days) was 71%, the “Observed antifungal activity O” value (Penicillium italicum; 250 ppm natamycin, 150 ppm prothioconazole or both, 26 days) was 63% and the “Observed antifungal activity O” value (Penicillium italicum; 250 ppm natamycin, 150 ppm prothioconazole or both, 29 days) was 40%. For the same compound, the “Observed antifungal activity O” value (Penicillium italicum; 250 ppm natamycin, 150 ppm prothioconazole or both, 34 days) was 27%, the “Observed antifungal activity O” value (Penicillium italicum; 500 ppm natamycin, 600 ppm prothioconazole or both, 25 days) was 91% and the “Observed antifungal activity O” value (Penicillium italicum; 500 ppm natamycin, 600 ppm prothioconazole or both, 28 days) was 83%. For the same compound, the “Observed antifungal activity O” value (Penicillium italicum; 500 ppm natamycin, 600 ppm prothioconazole or both, 31 days) was 71%, the “Observed antifungal activity O” value (Penicillium italicum; 500 ppm natamycin, 600 ppm prothioconazole or both, 34 days) was 63% and the “Number of moulded wounds/total number of 12 wounds” value (Fusarium proliferatum [3]; 250 ppm natamycin, 100 ppm prothioconazole or both, Day 27) was 11/12. The “Number of moulded wounds/total number of 12 wounds” value (Fusarium proliferatum [3]; 250 ppm natamycin, 100 ppm prothioconazole or both, Day 27, listed as prothioconazole) was 11, the “Number of moulded wounds/total number of 12 wounds” value (Fusarium proliferatum [3]; 250 ppm natamycin, 100 ppm prothioconazole or both, Day 28 and 29) was 12/12 and the “Number of moulded wounds/total number of 12 wounds” value (Fusarium proliferatum [3]; 250 ppm natamycin, 100 ppm prothioconazole or both, Day 28 and 29, listed as prothioconazole) was 12. The “Number of moulded wounds/total number of 12 wounds” value (Fusarium proliferatum [3]; 500 ppm natamycin, 250 ppm prothioconazole or both, Day 27, 28 and 29) was 10/12, the “Number of moulded wounds/total number of 12 wounds” value (Fusarium proliferatum [3]; 500 ppm natamycin, 250 ppm prothioconazole or both, Day 27, 28 and 29, listed as prothioconazole) was 10 and the “Observed antifungal activity O” value (Botrytis cinerea [4]; 5 days, propiconazole 0.50 ppm, prothioconazole 0.13 ppm, or natamycin 1.25 ppm with either) was 0%. For the same compound, the “Observed antifungal activity O” value (Botrytis cinerea [4]; 10 days, prothioconazole 0.13 ppm or both) was 50%.
